Data as given in a melting point compilation (Tetko et al.; mined from patent text by program, amines drawn as free bases though some values may be those of a salt).

Row | Compound | melting point [°C]
1 | CC(=O)NCc1ccc(CN2CCN(c3ccc(F)cc3NC(C)=O)CC2)cc1 | 148 to 150
2 | O=C1CN(S(=O)(=O)c2ccccc2)c2ccccc2N1 | 183 to 185
3 | CS(=O)(=O)Cc1c(C(=O)O)ccc2c1OC(F)(F)O2 | 107 to 109
4 | C#CCN1C(=O)N(c2ccc(C#N)c(C(F)(F)F)c2)C(=O)C1(CF)CF | 126 to 127
5 | CCn1cc(C(=O)O)c(=O)c2cc(Cl)c(N3CCN(CCO)CC3)cc21 | 215
6 | CC(=Nc1ccc(Cl)nn1)N(C)C | 73
7 | COCCOc1ccc2c(C3C(=O)Nc4ccccc43)ncnc2c1 (centres undefined) | 245 to 248
8 | COC(=O)c1cc(N=Cc2ccccc2)ccc1OC(C)=O | 101 to 103
9 | COCCOc1ccc(CCCOC(=O)NS(=O)(=O)NCCc2cccs2)c(Oc2ncc(C(F)(F)F)cc2Cl)c1 | 118
10 | CCCCc1cn(CCC(C)C)c(=O)n1Cc1ccc(-c2ccccc2-c2nnn[nH]2)nc1 | 168 to 170
11 | COc1ccc(-c2csc(N)n2)cc1 | 194 to 205
12 | CCOC(=O)c1cnn2c1[nH]c(=O)c1cnc3c(cnn3CC)c12 | 263 to 265
13 | O=C(O)CC(NC(=O)c1ccc2c(c1)CCC(=NNC1=NCCN1)C1=C2CCC1)c1cccnc1 (centres undefined) | 126 to 128
14 | Cc1nc(-c2ccccc2)sc1CNC(=O)c1ccnc(N2CCN(Cc3ccc(F)cc3)C2=O)c1 | 182 to 184
15 | COc1ccc2c(c1OCC#N)CCC=C2 | 138 to 139
16 | Cc1cc(C(C)(C)C(=O)O)ccc1O | 145 to 146
17 | CC(=O)NC[C@H]1CN(c2ccc(C(=O)c3cnc4ccc(C#N)cn34)cc2)C(=O)O1 | 224 to 226
18 | O=C1CCCN1c1cc(-c2ccnc(Nc3cccc(Cl)c3)n2)ccn1 | 165 to 166
19 | COC(=O)C(C)(C)OCc1cc2cc(C(F)(F)F)ccc2n1S(=O)(=O)c1cc(OC)ccc1OC | 130 to 132
20 | Cc1cccc(C(=O)C(=C2SCS2)c2ccncc2)c1 | 179
21 | O=C(O)c1ccccc1OCCN1CCC(c2cn(CC3CC3)c3cc(F)ccc23)CC1 | 97

Row | Compound | melting point [°C]
22 | CN1C(=O)CC[C@]2(C)c3ccc(-c4cc5ccccc5s4)cc3CC[C@@H]12 | 247 to 250
23 | CN1C(C(=O)Nc2cccccc2=O)=C(OC(=O)C=Cc2ccccc2)c2sccc2S1(=O)=O | 167 to 170
24 | O=Cc1c(-c2ccccc2)nc2sc3c(n12)CCCC3 | 150
25 | CCOC(=O)c1c(C(=O)c2nc(OC)cc(OC)n2)ccnc1Br | 98 to 99
26 | O=c1c2ccc(Cl)cc2[nH]c2c(O)nn(C3CCOc4ccccc43)c(=O)c12 (racemic) | > 300
27 | CNc1c(F)c(O)c2c(=O)c(C(=O)O)cn(-c3cc(N)c(F)cc3F)c2c1C | > 280
28 | NC(=O)C(Nc1ccc(I)cc1)c1ccccc1 (centres undefined) | 134 to 137
29 | COc1ccc(-c2cc(-c3ccccc3)nc(C)c2C(=O)Cl)cc1OC | 140
30 | COc1cccc(NS(=O)(=O)c2cccc(C=CC(=O)NO)c2)c1 | 137
31 | CCOC(=O)Cc1csc(-c2cc3cccc(N(C)S(=O)(=O)c4cccs4)c3[nH]2)n1 | 117 to 118
32 | Nc1cc(F)cc2c(Cl)ccnc12 | 98 to 103
33 | COc1ccc(S(=O)(=O)c2cc3c(cc2C)OC(C(=O)O)O3)cc1NC(C)=O (centres undefined) | 230
34 | O=c1oc2c(O)c(O)ccc2c2cc(O)c(O)cc12 | > 250
35 | CCCCc1ncc(CC(NC(=O)C(c2ccccc2)c2ccccc2)C(=O)O)n1Cc1ccccc1Cl (centres undefined) | 222 to 225
36 | CC(C)c1ccc(N(Cc2ccc(N(C)C)cc2)C(=O)C2CCCc3cc(O)ccc32)cc1 (centres undefined) | 169 to 171
37 | Cc1cc2c(-c3cccc(C(F)(F)F)c3)nc(Cl)nc2s1 | 108
38 | O=C(O)C1=Cc2cc(OCc3ccccc3)ccc2OC1 | 184 to 189
39 | O=c1[nH]c2ccc(C=C3c4ccc(F)cc4CCc4cc(F)ccc43)cc2[nH]1 | 257
40 | CCCOc1ccc(/C=C/c2nc3c([nH]2)c(=O)n(CC)c(=O)n3CC)cc1 | > 270
41 | OCc1ccc(I)c(Cl)c1 | 80 to 82
42 | Cc1ccc(-c2ccc(CO)cc2)cc1 | 128 to 131

Row | Compound | melting point [°C]
43 | CSC1=NC2=NC3=C(CNCC3=O)CN2N1 | 266 to 269
44 | CN(SC1CCCCCCC1Cl)C(=O)Nc1ccc(Cl)c(Cl)c1 (centres undefined) | 90 to 91
45 | CCN(CC)C(=S)c1c(C)cccc1[Si](C)(C)C | 82 to 83
46 | COc1ccc(C(=O)Nc2cccnc2)c2c3cc(Cl)ccc3n(Cc3ccc(F)cc3)c12 | 224 to 228
47 | Cc1cc(C(=O)O)c2c(c1)C(C(Cl)(Cl)Cl)OC(C(Cl)(Cl)Cl)O2 (centres undefined) | 290 to 291
48 | O=C(c1ccccc1)c1cnc2c(c1)CCC(c1ccc(Cl)c(Cl)c1)O2 (centres undefined) | 155 to 158
49 | Cc1ccc2nc(-c3ccc(-c4ccccc4)cc3)nc(C(=O)O)c2c1 | 193 to 196
50 | Oc1cnccc1CCCOc1cccnc1Oc1cc(Cl)cc(Cl)c1 | 99 to 101
51 | O=C1CN(CCC(O)C2CCCCC2)C(=O)N1 (centres undefined) | 97 to 99
52 | CCOC(=O)C(=CN)C(=O)c1cc(F)c(F)c(F)c1F | 118 to 119
53 | COC(=O)C1(n2c(=O)[nH]c3ccccc3c2=O)CCCCC1 | 145 to 147
54 | CCOC(=O)NC(=S)N1CC1C#N (centres undefined) | 152 to 155
55 | O=C(c1ccccc1)c1ccccc1Nc1ncccc1[N+](=O)[O-] | 85
56 | CCC(CC)(OCc1oc(-c2ccc(Cl)cc2)nc1C)C(=O)O | 157
57 | NS(=O)(=O)c1cnc(NC(=O)c2cnn3c(C(F)(F)F)cc(-c4ccc(C(F)(F)F)cc4)nc23)s1 | 309
58 | Cc1nc(CC(C)C)c(CN)c(-c2ccc(Cl)cc2)c1C(=O)OC(C)(C)C | 81 to 83
59 | CN(c1ncccc1[N+](=O)[O-])C1CCNCC1 | 116 to 117
60 | CSc1sc(-c2nc(C)no2)c2c1C(=O)CC(C)(C)C2 | 177 to 180
61 | C[Si](Cl)(Cl)C(c1ccccc1)(c1ccccc1)c1ccccc1 | 170 to 172
62 | O=C(O)CCCCC=C(c1ccccc1)c1ccccc1 | 71.5 to 72.5
63 | CCOc1ccc(-c2ccc3c(c2)C=C(C(=O)Nc2ccc(CN(C)C4CCOCC4)cc2)CCS3(=O)=O)cc1Cl | 201 to 204

Next, values leading:

Row | melting point [°C] | Compound
64 | 128 to 130 | Cc1cccc(C)c1NC(=O)N=C1CCCCCN1C
65 | 211 | O=C(Nc1ccccc1Sc1c(Cl)cncc1Cl)N[C@@H](Cc1ccc(NC(=O)c2c(Cl)cncc2Cl)cc1)C(=O)O
66 | 150 to 152 | CCn1ncnc1COc1nc2c(cnn2-c2ccccc2)cc1C(C)(C)C
67 | 250 to 253 | CC(=O)OC1CCN(c2c(F)cc3c(=O)c(C(=O)O)cn4c3c2CCC4C)CC1 (centres undefined)
68 | 140 to 142 | Cc1ccc(S(=O)(=O)N2CCC3(CCc4ccccc43)CC2)cc1
69 | 220 | CS(=O)(=O)c1cc(Br)ccc1C(=O)O
70 | 111 to 115 | CCCc1c(OCCCOc2ccc(-c3coc(C)n3)c(OC)c2CCC)ccc2c1OC(C(=O)O)CC2 (centres undefined)
71 | 155 | Cn1c(=O)cc(-c2cccc(Cl)c2)c2cc(C(=O)c3ccc(Cl)cc3)ccc21
72 | 133 | COc1ccc(CC2CC(=O)CCN2C(=O)c2cc(C(F)(F)F)cc(C(F)(F)F)c2)cc1OC (centres undefined)
73 | 95 to 106 | O=C(O)Cc1ccc(CNC(=O)C2Cc3ccccc3N2S(=O)(=O)c2ccc(-c3cccc(C(F)(F)F)c3)cc2)c(Cl)c1 (centres undefined)
74 | 187 to 189 | Cc1c(C(=O)O)cnn1-c1c(Cl)cc(C(F)(F)F)cc1Cl
75 | 178 to 180 | CNC1=NC2(O)c3ccc(OCC(F)(F)C(F)(F)C(F)(F)F)cc3CC2S1 (centres undefined)
76 | 172 to 173 | CCOC(=O)C(=O)CC(=O)c1cn(Cc2c(F)cccc2F)c2ccccc2c1=O
77 | 202 to 205 | Cc1c(Cl)[nH]c(=O)n(Cc2ccccc2)c1=O
78 | 179 to 181 | O=[N+]([O-])c1cnc(Sc2n[nH]c(-c3cccs3)n2)s1
79 | 120 | COC(=O)c1cc(-c2ccc(Cl)cc2)nn1Cc1ccc(Cl)cc1Cl
80 | 136 | COC(=O)[C@@H](C)OCC#Cc1cc(Cl)ccc1NS(=O)(=O)c1ccc2ncsc2c1
81 | 65 to 66 | CC(C)(C)OC(=O)N[C@@H](COCc1ccccc1)C(=O)N[C@H](CCC(=O)OCc1ccccc1)C(N)=O

Row | melting point [°C] | Compound
82 | 267 to 269 | CCCC(=O)c1cc2c(=O)cc(C(=O)O)[nH]c2c(C)c1C
83 | 115 to 117 | NNC(=S)NCC1CC(c2ccc(Cl)cc2)=NO1 (centres undefined)
84 | 235 to 240 | CC12CCCC1C1CCc3cc(C(=O)O)ccc3C1CC2 (centres undefined)
85 | 163 to 164 | Cc1c[nH]c(-c2ccccc2)c1-c1ccccc1
86 | 268 to 272 | Cc1ccc(Nc2nc(-c3cccc(C#N)c3)cs2)nc1
87 | 118 to 119 | O=C(O)Cc1cn(Cc2ccc(OCc3csc(-c4ccccc4)n3)nc2)nc1-c1ccccc1
88 | 140 to 142 | Cc1cc2c(cc1Oc1nnnn1-c1ccccc1)[C@@H](c1ccccc1)CN(C)CC2
89 | 150 to 152 | CC1CC(NC(=O)C(F)(F)F)=NN1c1ccc(Cl)c(Cl)c1 (centres undefined)
90 | 95 to 97 | Cc1cc(-c2noc(C(F)(F)F)n2)cc(C)c1OCCCc1cncs1
91 | 91 to 93 | CCOC(=S)SCc1cc(OC)nc(N)n1
92 | 147 to 149 | CCc1c(-c2ccc(OCc3ccccc3)cc2)c2cc(C(C)=O)c3ccc(OCc4ccccc4)c1n32
93 | 182 to 185 | Nc1nc2ccccc2c2c1nc(-c1ccccc1)n2CCOc1ccccc1
94 | 222 to 228 | CCOP(=O)(Cc1nnc2c(=O)[nH]c3cc(C(F)(F)F)c([N+](=O)[O-])cc3n12)OCC
95 | 177 to 178 | CCCOc1ccc(S(=O)(=O)C(C)C)cc1C(N)=O
96 | 143 to 145 | Cc1ccc(C)n1-c1ccc(/C=C/C(=O)N(C)O)cc1
97 | 93 to 95 | CCCc1nc(C(C)=O)c(C#N)[nH]1
98 | 191 | O=c1c2ccccc2nc(-c2ccccc2)n1CCN1CCC(c2c[nH]c3ccccc23)CC1
99 | 204 to 205 | CC(C)(C)OC(=O)COc1ccc(-c2c(Cl)c(CN3C(=O)CCC3=O)nc3sc4c(c23)CCS(=O)(=O)C4)cc1
